According to patent publication EP0908457B1, “3-(1,2-benzisothiazol- and isoxazol-5-Y1)-2,4(1H,3H)-pyrimidinedione or thione and 3-(1,2-benzisothiazol- and isoxazol-5-y1)-4(3H)-pyrimidinone or thione herbicidal agents” (BASF AKTIENGESELLSCHAFT, priority 1997, dated 1999):

Tests used:
[1] = system: Monochoria vaginalis, Presl.; test: Preemergence weed control under flooded paddy conditions, MOOVA (Monochoria); assay type: in vivo; conditions: flooded paddy; as to herbicidal effect rating, MOOVA: meaning of each grade not given here
[2] = system: Cyperus serotinus, Rottb.; test: Preemergence weed control under flooded paddy conditions, CYPSE (Flatsedge); assay type: in vivo; as to herbicidal effect rating, CYPSE: meaning of each grade not given here
[3] = system: Echinochloa oryzoides (Ard.) Fritsch.; test: Preemergence weed control under flooded paddy conditions, ECHORC (Watergrass (Calif.)); assay type: in vivo; conditions: flooded paddy; as to herbicidal effect rating, ECHORC: meaning of each grade not given here
[4] = system: Cyperus iria; test: Preemergence weed control under flooded paddy conditions, CYPIR (Rice Flatsedge); assay type: in vivo; conditions: flooded paddy; as to herbicidal effect rating, CYPIR: meaning of each grade not given here
[5] = system: Sagittaria pygmaea, L.; test: Preemergence weed control under flooded paddy conditions, SAGPY (Arrowhead (Pygmaea)); assay type: in vivo; conditions: flooded paddy; as to herbicidal effect rating, SAGPY: meaning of each grade not given here
[6] = system: Oryza sativa, (L.) Tebonnet; test: Rice tolerance to post-transplant applications under flooded paddy conditions (Example 187), ORYSAT (Rice, Tebonnet); as to herbicidal effect rating ORYSAT: meaning of each grade not given here
[7] = 0.0313 kg/ha, preemergence, rated three to four weeks after treatment
[8] = 0.0625 kg/ha, preemergence, rated three to four weeks after treatment
[9] = 0.1250 kg/ha, preemergence, rated three to four weeks after treatment
[10] = 0.2500 kg/ha, preemergence, rated three to four weeks after treatment
[11] = 0.0313 kg/ha, rated three to four weeks after treatment
[12] = 0.0625 kg/ha, rated three to four weeks after treatment
[13] = 0.1250 kg/ha, rated three to four weeks after treatment
[14] = 0.2500 kg/ha, rated three to four weeks after treatment
[15] = Rate 0.0313 kg/ha, preemergence, rated three to four weeks after treatment
[16] = Rate 0.0625 kg/ha, preemergence, rated three to four weeks after treatment
[17] = Rate 0.1250 kg/ha, preemergence, rated three to four weeks after treatment
[18] = Rate 0.2500 kg/ha, preemergence, rated three to four weeks after treatment
[19] = Rate 0.1250 kg/ha, rated three to four weeks after treatment
[20] = Rate 0.2500 kg/ha, rated three to four weeks after treatment
[21] = Rate 0.0320 kg/ha, preemergence, rated 3-4 weeks after treatment
[22] = Rate 0.0620 kg/ha, preemergence, rated 3-4 weeks after treatment
[23] = Rate 0.1250 kg/ha, preemergence, rated 3-4 weeks after treatment
[24] = Rate 0.2500 kg/ha, preemergence, rated 3-4 weeks after treatment
[25] = Rate 0.5000 kg/ha, preemergence, rated 3-4 weeks after treatment
[26] = Rate 0.0320 kg/ha, preemergence weeds, rated three to four weeks after treatment
[27] = Rate 0.0620 kg/ha, preemergence weeds, rated three to four weeks after treatment
[28] = Rate 0.1250 kg/ha, preemergence weeds, rated three to four weeks after treatment
[29] = Rate 0.2500 kg/ha, preemergence weeds, rated three to four weeks after treatment

Cc1ccc(OC(C)C)c(-c2nsc3ccc(-n4c(=O)cc(C(F)(F)F)n(C)c4=O)cc23)c1 [Example 59, 3-[3-(6-Isopropoxy-m-tolyl)-1,2-benzisothiazol-5-yl]-1-methyl-6-(trifluoromethyl)-2,4(1H,3H)-pyrimidinedione]
9.0: herbicidal effect rating, MOOVA [1, 7] | herbicidal effect rating, MOOVA [1, 8] | herbicidal effect rating, MOOVA [1, 9] | herbicidal effect rating, MOOVA [1, 10] | herbicidal effect rating, ECHORC [3, 7] | herbicidal effect rating, ECHORC [3, 8] | herbicidal effect rating, ECHORC [3, 9] | herbicidal effect rating, ECHORC [3, 10] | herbicidal effect rating, CYPIR [4, 10]
2.0: herbicidal effect rating, ORYSAT (rice tolerance) [6, 11]
8.0: herbicidal effect rating, CYPIR [4, 9]
0.0: herbicidal effect rating, CYPSE [2, 7] | herbicidal effect rating, CYPSE [2, 8] | herbicidal effect rating, CYPSE [2, 9] | herbicidal effect rating, CYPSE [2, 10] | herbicidal effect rating, SAGPY [5, 7] | herbicidal effect rating, SAGPY [5, 8] | herbicidal effect rating, SAGPY [5, 9] | herbicidal effect rating, SAGPY [5, 10]
4.0: herbicidal effect rating, ORYSAT (rice tolerance) [6, 13] | herbicidal effect rating, ORYSAT (rice tolerance) [6, 14]
3.0: herbicidal effect rating, ORYSAT (rice tolerance) [6, 12]
7.0: herbicidal effect rating, CYPIR [4, 7] | herbicidal effect rating, CYPIR [4, 8]

Cc1ccc(OC(C)C#N)c(-c2nsc3ccc(-n4c(=O)cc(C(F)(F)F)n(C)c4=O)cc23)c1 (centres unmarked) [Example 58, 3-{3-[6-(1-Cyanoethoxy)-m-tolyl]-1,2-benzisothiazol-5-yl}-1-methyl-6-(trifluoromethyl)-2,4(1H,3H)-pyrimidinedione]
0.0: herbicidal effect rating, CYPSE [2, 7] | herbicidal effect rating, CYPSE [2, 8] | herbicidal effect rating, CYPSE [2, 9] | herbicidal effect rating, CYPSE [2, 10] | herbicidal effect rating, SAGPY [5, 7] | herbicidal effect rating, SAGPY [5, 8] | herbicidal effect rating, SAGPY [5, 9] | herbicidal effect rating, SAGPY [5, 10]
5.0: herbicidal effect rating, ORYSAT (rice tolerance) [6, 14]
2.0: herbicidal effect rating, ORYSAT (rice tolerance) [6, 11] | herbicidal effect rating, ORYSAT (rice tolerance) [6, 12]
3.0: herbicidal effect rating, ORYSAT (rice tolerance) [6, 13]
9.0: herbicidal effect rating, MOOVA [1, 7] | herbicidal effect rating, MOOVA [1, 8] | herbicidal effect rating, MOOVA [1, 9] | herbicidal effect rating, MOOVA [1, 10] | herbicidal effect rating, ECHORC [3, 7] | herbicidal effect rating, ECHORC [3, 8] | herbicidal effect rating, ECHORC [3, 9] | herbicidal effect rating, ECHORC [3, 10] | herbicidal effect rating, CYPIR [4, 7] | herbicidal effect rating, CYPIR [4, 8] | herbicidal effect rating, CYPIR [4, 9] | herbicidal effect rating, CYPIR [4, 10]

Cc1nsc2ccc(-n3c(=O)cc(C(F)(F)F)n(Cc4ccccc4)c3=O)cc12 [Example 218, 1-Benzyl-3-(3-methyl-1,2-benzisothiazol-5-yl)-6-(trifluoromethyl)-2,4(1H,3H)-pyrimidinedione]
2.0: ECHORC herbicidal effect rating [3, 17] | ORYSAT herbicidal effect rating ([6]; Rate 0.0625 kg/ha, rated three to four weeks after treatment)
8.0: MOOVA herbicidal effect rating [1, 15]
0.0: CYPSE herbicidal effect rating [2, 15] | CYPSE herbicidal effect rating [2, 16] | CYPSE herbicidal effect rating [2, 17] | CYPSE herbicidal effect rating [2, 18] | ECHORC herbicidal effect rating [3, 15] | ECHORC herbicidal effect rating [3, 16] | CYPIR herbicidal effect rating [4, 15] | CYPIR herbicidal effect rating [4, 16] | CYPIR herbicidal effect rating [4, 17] | CYPIR herbicidal effect rating [4, 18] | SAGPY herbicidal effect rating [5, 15] | SAGPY herbicidal effect rating [5, 16] | SAGPY herbicidal effect rating [5, 17] | SAGPY herbicidal effect rating [5, 18]
3.0: ORYSAT herbicidal effect rating [6, 19] | ORYSAT herbicidal effect rating [6, 20]
4.0: ECHORC herbicidal effect rating [3, 18]
9.0: MOOVA herbicidal effect rating [1, 16] | MOOVA herbicidal effect rating [1, 17] | MOOVA herbicidal effect rating [1, 18]
1.0: ORYSAT herbicidal effect rating ([6]; Rate 0.0313 kg/ha, rated three to four weeks after treatment)

C=CS(=O)(=O)NC(=O)COc1ccc(C)cc1-c1nsc2ccc(-n3c(=O)cc(C(F)(F)F)n(C)c3=O)cc12 [Example 553, Acetamide, 2-{{2-{5-[3,6-dihydro-3-methyl-2,6-dioxo-4-(trifluoromethyl)-1(2H)-pyrimidinyl]-1,2-benzisothiazol-3-yl}-p-tolyl}oxy}-N-(vinylsulfonyl)-]
3.0: herbicidal effect rating ORYSAT ([6]; Rate 0.0320 kg/ha, rated 3-4 weeks after treatment)
6.4: herbicidal effect rating, ECHORC [3, 23]
6.0: herbicidal effect rating, CYPIR [4, 22] | herbicidal effect rating ORYSAT ([6]; Rate 0.2500 kg/ha, rated 3-4 weeks after treatment)
4.0: herbicidal effect rating, CYPIR [4, 25] | herbicidal effect rating ORYSAT ([6]; Rate 0.0620 kg/ha, rated 3-4 weeks after treatment) | herbicidal effect rating ORYSAT ([6]; Rate 0.1250 kg/ha, rated 3-4 weeks after treatment) | herbicidal effect rating ORYSAT ([6]; Rate 0.5000 kg/ha, rated 3-4 weeks after treatment)
0.0: herbicidal effect rating, CYPSE [2, 21] | herbicidal effect rating, CYPSE [2, 22] | herbicidal effect rating, SAGPY [5, 21] | herbicidal effect rating, SAGPY [5, 22] | herbicidal effect rating, SAGPY [5, 23] | herbicidal effect rating, SAGPY [5, 24] | herbicidal effect rating, SAGPY [5, 25]
7.0: herbicidal effect rating, MOOVA [1, 21] | herbicidal effect rating, ECHORC [3, 25] | herbicidal effect rating, CYPIR [4, 23]
9.0: herbicidal effect rating, MOOVA [1, 22] | herbicidal effect rating, MOOVA [1, 23] | herbicidal effect rating, MOOVA [1, 24] | herbicidal effect rating, MOOVA [1, 25] | herbicidal effect rating, CYPSE [2, 25] | herbicidal effect rating, ECHORC [3, 24] | herbicidal effect rating, CYPIR [4, 24]
1.3: herbicidal effect rating, ECHORC [3, 21]
2.1: herbicidal effect rating, ECHORC [3, 22]
2.0: herbicidal effect rating, CYPSE [2, 24] | herbicidal effect rating, CYPIR [4, 21]

Cn1c(C(F)(F)F)cc(=O)n(-c2ccc3snc(C(=O)NS(C)(=O)=O)c3c2)c1=O [Example 323, 1,2-Benzisothiazole-3-carboxamide, 5-[3,6-dihydro-3-methyl-2,6-dioxo-4-(trifluoromethyl)-1(2H)-pyrimidinyl]-N-(methylsulfonyl)-]
5.0: herbicidal effect rating, CYPSE [2, 26] | herbicidal effect rating ORYSAT ([6]; Rate 0.0620 kg/ha, rated three to four weeks after treatment)
8.0: herbicidal effect rating, MOOVA [1, 26] | herbicidal effect rating, ECHORC [3, 28] | herbicidal effect rating, ECHORC [3, 29] | herbicidal effect rating, CYPIR [4, 28] | herbicidal effect rating, CYPIR [4, 29]
6.0: herbicidal effect rating, CYPSE [2, 27] | herbicidal effect rating ORYSAT [6, 19]
0.0: herbicidal effect rating, SAGPY [5, 26]
4.5: herbicidal effect rating, ECHORC [3, 26] | herbicidal effect rating, CYPIR [4, 27]
6.5: herbicidal effect rating, CYPSE [2, 28] | herbicidal effect rating, ECHORC [3, 27]
3.5: herbicidal effect rating, CYPIR [4, 26] | herbicidal effect rating, SAGPY [5, 27] | herbicidal effect rating, SAGPY [5, 28] | herbicidal effect rating ORYSAT ([6]; Rate 0.0320 kg/ha, rated three to four weeks after treatment)
9.0: herbicidal effect rating, MOOVA [1, 27] | herbicidal effect rating, MOOVA [1, 28] | herbicidal effect rating, MOOVA [1, 29] | herbicidal effect rating, SAGPY [5, 29]
7.5: herbicidal effect rating, CYPSE [2, 29] | herbicidal effect rating ORYSAT [6, 20]
